# Data taken from patent publication EP0340307A1, “COMPOSITION OF POLYMER DIFFUSION MATRIX FOR TRANSDERMALLY INTRODUCING PHARMACEUTICAL SUBSTANCES” (priority 1987, dated 1989).
# Like-named read-outs stand apart in the source and are kept apart here.
# Assay: In vitro transdermal delivery of the drug from the diffusion matrix through human cadaver skin epidermis into Ringer solution
# Description: Es wurde von uns eine Diffusionsmatrix "in vitro" untersucht, die auf der Grundlage der erfindungsgemäßen Zusammensetzung hergestellt wurde.
# So wird, beispielsweise, auf eine Adhäsionsschicht einer Diffusionsmatrix mit runder Form und einem Radius von 1 cm (Fläche 3,14 cm²), die auf der Grundlage einer Zusammensetzung hergestellt wird, die 26,7 g Propranolol, 40 g Polyäthylenglykol mit einer Molekularmasse von 400 und 100 g Polyvinylpyrrolidon enthält, ein Probestück aus der Epidermis der Leichenhaut eines Menschen (mit der Außenoberfläche der Epidermis an die Diffusionsmatrix) aufgeklebt. Das Laminat der Diffusionsmatrix mit der Hautepidermis taucht man in die in einem Magnetrührer zu vermischende Ringer-Lösung ein. In den vorgegebenen Zeitabständen nimmt man aus der Lösung Proben ab, in denen man den Gehalt an Propranolol mit Hilfe der Spektrofluorometrie ermittelt, wobei die vorher aufgebauten Eichkurven genutzt werden.
SMILES,"Geschwindigkeit des transdermalen Eintritts des Arzneistoffes aus der Matrix (drug contained in the named matrix, through cadaver skin) [µg/cm².h]","Geschwindigkeit der transdermalen Zuführung aus einer Matrix, die einen Füllstoff enthält [µg/cm².h]",Geschwindigkeit des transdermalen Eintritts des Arzneistoffes aus der Matrix [µg/cm².h]
O=[N+]([O-])OCC(CO[N+](=O)[O-])O[N+](=O)[O-] [Nitroglyzerin],39,,
CC(C)NCC(O)COc1cccc2ccccc12 (stereo not drawn) [Propranolol],,55,47
